# Source: the supplement of paper PMC9663587
# Key:
# Neratinib/HKI272 [1] = compound: T1, CCOc1cc2ncc(C#N)c(Nc3ccc(OCc4ccccn4)c(Cl)c3)c2cc1NC(=O)/C=C/CN(C)C [Neratinib/HKI272]; experiment: GR value, 72 h; higher = faster growth (1 = untreated, <0 = killing);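 note: breast cancer and non-malignant breast epithelial lines, nine half-log doses, viable cells counted by Hoechst and LIVE/DEAD dye imaging versus time-zero plates and DMSO controls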
# Flavopiridol [2] = compound: T2, CN1CC[C@H](c2c(O)cc(O)c3c(=O)cc(-c4ccccc4Cl)oc23)[C@H](O)C1 [Flavopiridol]; experiment: as above
# [3] = compound: CCc1cnn2c(NCc3ccc[n+]([O-])c3)cc(N3CCCC[C@H]3CCO)nc12; experiment: increase in dead-cell fraction, 72 h; higher = more death;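 note: breast cancer cell lines in 384-well plates, stained with Hoechst plus LIVE/DEAD far red dye and imaged, cells above an LDR intensity threshold counted dead, Hoechst-negative corpses included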
# [4] = compound: CCN1CCN(Cc2ccc(Nc3ncc(F)c(-c4cc(F)c5nc(C)n(C(C)C)c5c4)n3)nc2)CC1; experiment: as above
# THZ531 = compound: CN(C)C/C=C/C(=O)Nc1ccc(C(=O)N2CCC[C@@H](Nc3ncc(Cl)c(-c4c[nH]c5ccccc45)n3)C2)cc1 [THZ531]; experiment: as above
# YKL-5-124 = compound: C=CC(=O)Nc1ccc(C(=O)Nc2[nH]nc3c2CN(C(=O)N[C@H](CN(C)C)c2ccccc2)C3(C)C)cc1 [YKL-5-124]; experiment: as above
# Neratinib/HKI272 [5] = compound: T1, Neratinib/HKI272; experiment: as above
# LEE011/Ribociclib = compound: CN(C)C(=O)c1cc2cnc(Nc3ccc(N4CCNCC4)cn3)nc2n1C1CCCC1 [LEE011/Ribociclib]; experiment: as above
# Flavopiridol [6] = compound: T2, Flavopiridol; experiment: as above
# THZ1 = compound: CN(C)C/C=C/C(=O)Nc1ccc(C(=O)Nc2cccc(Nc3ncc(Cl)c(-c4c[nH]c5ccccc45)n3)c2)cc1 [THZ1]; experiment: as above
# [7] = compound: CC(=O)c1c(C)c2cnc(Nc3ccc(N4CCNCC4)cn3)nc2n(C2CCCC2)c1=O; experiment: as above
# BSJ-03-123 = compound: CC(=O)c1c(C)c2cnc(Nc3ccc(N4CCN(CCOCCOCCOCCNC(=O)COc5cccc6c5C(=O)N(C5CCC(=O)NC5=O)C6=O)CC4)cn3)nc2n(C2CCCC2)c1=O [BSJ-03-123]; experiment: as above
cell line,measurement,setting,value
T47D,GR value,Neratinib/HKI272 [1]; 0.0003162 µM,1.02 GR
same,GR value,Neratinib/HKI272 [1]; 0.001 µM,1.01 GR
same,GR value,Neratinib/HKI272 [1]; 0.003162 µM,0.94 GR
same,GR value,Neratinib/HKI272 [1]; 0.01 µM,0.899 GR
same,GR value,Neratinib/HKI272 [1]; 0.03162 µM,0.749 GR
same,GR value,Neratinib/HKI272 [1]; 0.1 µM,0.65 GR
same,GR value,Neratinib/HKI272 [1]; 0.3162 µM,0.584 GR
same,GR value,Neratinib/HKI272 [1]; 1 µM,0.382 GR
same,GR value,Neratinib/HKI272 [1]; 3.162 µM,0.215 GR
same,GR value,Flavopiridol [2]; 0.0001 µM,0.983 GR
same,GR value,Flavopiridol [2]; 0.0003162 µM,1.05 GR
same,GR value,Flavopiridol [2]; 0.001 µM,0.945 GR
same,GR value,Flavopiridol [2]; 0.003162 µM,1.05 GR
same,GR value,Flavopiridol [2]; 0.01 µM,0.897 GR
same,GR value,Flavopiridol [2]; 0.03162 µM,0.808 GR
same,GR value,Flavopiridol [2]; 0.1 µM,0.548 GR
same,GR value,Flavopiridol [2]; 0.3162 µM,0.148 GR
same,GR value,Flavopiridol [2]; 1 µM,-0.153 GR
same,increase in dead-cell fraction,[3]; 0.0001 µM,-0.0001
same,increase in dead-cell fraction,[3]; 0.0003162 µM,0.0027
same,increase in dead-cell fraction,[3]; 0.001 µM,-0.0018
same,increase in dead-cell fraction,[3]; 0.003162 µM,-0.0021
same,increase in dead-cell fraction,[3]; 0.01 µM,0.0073
same,increase in dead-cell fraction,[3]; 0.03162 µM,0.0576
same,increase in dead-cell fraction,[3]; 0.1 µM,0.106
same,increase in dead-cell fraction,[3]; 0.3162 µM,0.138
same,increase in dead-cell fraction,[3]; 1 µM,0.127
same,increase in dead-cell fraction,[4]; 0.001 µM,-0.0007
same,increase in dead-cell fraction,[4]; 0.003162 µM,0.0004
same,increase in dead-cell fraction,[4]; 0.01 µM,0.0119
same,increase in dead-cell fraction,[4]; 0.03162 µM,0.0119
same,increase in dead-cell fraction,[4]; 0.1 µM,0.0081
same,increase in dead-cell fraction,[4]; 0.3162 µM,0.0178
same,increase in dead-cell fraction,[4]; 1 µM,0.0167
same,increase in dead-cell fraction,[4]; 3.162 µM,0.0642
same,increase in dead-cell fraction,[4]; 10 µM,0.104
same,increase in dead-cell fraction,THZ531; 0.0001 µM,-0.0029
same,increase in dead-cell fraction,THZ531; 0.0003162 µM,0.0085
same,increase in dead-cell fraction,THZ531; 0.001 µM,-0.0033
same,increase in dead-cell fraction,THZ531; 0.003162 µM,0.0028
same,increase in dead-cell fraction,THZ531; 0.01 µM,-0.0045
same,increase in dead-cell fraction,THZ531; 0.03162 µM,0.0014
same,increase in dead-cell fraction,THZ531; 0.1 µM,0.01
same,increase in dead-cell fraction,THZ531; 0.3162 µM,0.035
same,increase in dead-cell fraction,THZ531; 1 µM,0.0357
same,increase in dead-cell fraction,YKL-5-124; 0.001 µM,0.0113
same,increase in dead-cell fraction,YKL-5-124; 0.003162 µM,0.0129
same,increase in dead-cell fraction,YKL-5-124; 0.01 µM,0.0177
same,increase in dead-cell fraction,YKL-5-124; 0.03162 µM,0.0322
same,increase in dead-cell fraction,YKL-5-124; 0.1 µM,0.0269
same,increase in dead-cell fraction,YKL-5-124; 0.3162 µM,0.0156
same,increase in dead-cell fraction,YKL-5-124; 1 µM,0.0308
same,increase in dead-cell fraction,YKL-5-124; 3.162 µM,0.0206
same,increase in dead-cell fraction,YKL-5-124; 10 µM,0.0574
same,increase in dead-cell fraction,Neratinib/HKI272 [5]; 0.0003162 µM,-0.0033
same,increase in dead-cell fraction,Neratinib/HKI272 [5]; 0.001 µM,0.0054
same,increase in dead-cell fraction,Neratinib/HKI272 [5]; 0.003162 µM,0.0022
same,increase in dead-cell fraction,Neratinib/HKI272 [5]; 0.01 µM,0.0045
same,increase in dead-cell fraction,Neratinib/HKI272 [5]; 0.03162 µM,0.0043
same,increase in dead-cell fraction,Neratinib/HKI272 [5]; 0.1 µM,0.0001
same,increase in dead-cell fraction,Neratinib/HKI272 [5]; 0.3162 µM,0.0101
same,increase in dead-cell fraction,Neratinib/HKI272 [5]; 1 µM,0.0084
same,increase in dead-cell fraction,Neratinib/HKI272 [5]; 3.162 µM,0.0225
same,increase in dead-cell fraction,LEE011/Ribociclib; 0.001 µM,0.0085
same,increase in dead-cell fraction,LEE011/Ribociclib; 0.003162 µM,0.0069
same,increase in dead-cell fraction,LEE011/Ribociclib; 0.01 µM,0.0061
same,increase in dead-cell fraction,LEE011/Ribociclib; 0.03162 µM,0.0139
same,increase in dead-cell fraction,LEE011/Ribociclib; 0.1 µM,0.0374
same,increase in dead-cell fraction,LEE011/Ribociclib; 0.3162 µM,0.0392
same,increase in dead-cell fraction,LEE011/Ribociclib; 1 µM,0.0267
same,increase in dead-cell fraction,LEE011/Ribociclib; 3.162 µM,0.0405
same,increase in dead-cell fraction,LEE011/Ribociclib; 10 µM,0.0242
same,increase in dead-cell fraction,Flavopiridol [6]; 0.0001 µM,0.0101
same,increase in dead-cell fraction,Flavopiridol [6]; 0.0003162 µM,-0.0037
same,increase in dead-cell fraction,Flavopiridol [6]; 0.001 µM,0.0027
same,increase in dead-cell fraction,Flavopiridol [6]; 0.003162 µM,0.0005
same,increase in dead-cell fraction,Flavopiridol [6]; 0.01 µM,0.0011
same,increase in dead-cell fraction,Flavopiridol [6]; 0.03162 µM,-0.0028
same,increase in dead-cell fraction,Flavopiridol [6]; 0.1 µM,0.0027
same,increase in dead-cell fraction,Flavopiridol [6]; 0.3162 µM,0.0159
same,increase in dead-cell fraction,Flavopiridol [6]; 1 µM,0.0323
same,increase in dead-cell fraction,THZ1; 0.0001 µM,-0.0018
same,increase in dead-cell fraction,THZ1; 0.0003162 µM,0.0029
same,increase in dead-cell fraction,THZ1; 0.001 µM,0.0039
same,increase in dead-cell fraction,THZ1; 0.003162 µM,0.005
same,increase in dead-cell fraction,THZ1; 0.01 µM,-0.0043
same,increase in dead-cell fraction,THZ1; 0.03162 µM,0.0328
same,increase in dead-cell fraction,THZ1; 0.1 µM,0.0197
same,increase in dead-cell fraction,THZ1; 0.3162 µM,0.0299
same,increase in dead-cell fraction,THZ1; 1 µM,0.0416
same,increase in dead-cell fraction,[7]; 0.0003162 µM,0.0016
same,increase in dead-cell fraction,[7]; 0.001 µM,-0.001
same,increase in dead-cell fraction,[7]; 0.003162 µM,0.0022
same,increase in dead-cell fraction,[7]; 0.01 µM,0.0006
same,increase in dead-cell fraction,[7]; 0.03162 µM,0.0078
same,increase in dead-cell fraction,[7]; 0.1 µM,0.0116
same,increase in dead-cell fraction,[7]; 0.3162 µM,0.0158
same,increase in dead-cell fraction,[7]; 1 µM,0.0154
same,increase in dead-cell fraction,[7]; 3.162 µM,0.0097
same,increase in dead-cell fraction,BSJ-03-123; 0.001 µM,0.0097
same,increase in dead-cell fraction,BSJ-03-123; 0.003162 µM,0.0074
same,increase in dead-cell fraction,BSJ-03-123; 0.01 µM,0.0101
same,increase in dead-cell fraction,BSJ-03-123; 0.03162 µM,0.0084
same,increase in dead-cell fraction,BSJ-03-123; 0.1 µM,0.019
same,increase in dead-cell fraction,BSJ-03-123; 0.3162 µM,0.021
same,increase in dead-cell fraction,BSJ-03-123; 1 µM,0.0319
same,increase in dead-cell fraction,BSJ-03-123; 3.162 µM,0.022
same,increase in dead-cell fraction,BSJ-03-123; 10 µM,0.0281
